Laboratory results reported in PubChem BioAssay AID1918998 (Molecular Pharmacology Branch, DTP, NCI, 2023).
“And” between values parts separate entries of the source, which are not always exact repeats. Equal values may be shown once.

System: 521955-158-R2-J5-PDC complex spheroid growth
Assay: Anticancer human tumor 521955-158-R2-J5-PDC patient-derived pancreatic carcinoma cell line growth inhibition [AhR]
Conditions: for viability, T/C: stronger effect = lower value
Outline: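 Agents were dosed in half-log steps down from roughly clinical Cmax, or from 10 microM where Cmax was unknown, alone and with AhR antagonists. Read-out: percent test/control growth of tumor spheroids containing HUVEC and MSC stromal cells.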

[1] = curve of first compound, second compound 0.1 µM
[2] = curve of first compound, second compound 0.316 µM
[3] = curve of first compound, second compound 1 µM
[4] = curve of first compound, second compound 3.16 µM
[5] = curve of first compound, second compound 10 µM
[6] = second compound 0.1 µM, first compound 0.0316 µM
[7] = second compound 0.1 µM, first compound 0.1 µM
[8] = second compound 0.1 µM, first compound 0.316 µM
[9] = second compound 0.1 µM, first compound 1 µM
[10] = second compound 0.1 µM, first compound 3.16 µM
[11] = second compound 0.1 µM, first compound 10 µM
[12] = second compound 0.316 µM, first compound 0.0316 µM
[13] = second compound 0.316 µM, first compound 0.1 µM
[14] = second compound 0.316 µM, first compound 0.316 µM
[15] = second compound 0.316 µM, first compound 1 µM
[16] = second compound 0.316 µM, first compound 3.16 µM
[17] = second compound 0.316 µM, first compound 10 µM
[18] = second compound 1 µM, first compound 0.0316 µM
[19] = second compound 1 µM, first compound 0.1 µM
[20] = second compound 1 µM, first compound 0.316 µM
[21] = second compound 1 µM, first compound 1 µM
[22] = second compound 1 µM, first compound 3.16 µM
[23] = second compound 1 µM, first compound 10 µM
[24] = second compound 3.16 µM, first compound 0.0316 µM
[25] = second compound 3.16 µM, first compound 0.1 µM
[26] = second compound 3.16 µM, first compound 0.316 µM
[27] = second compound 3.16 µM, first compound 1 µM
[28] = second compound 3.16 µM, first compound 3.16 µM
[29] = second compound 3.16 µM, first compound 10 µM
[30] = second compound 10 µM, first compound 0.0316 µM
[31] = second compound 10 µM, first compound 0.1 µM
[32] = second compound 10 µM, first compound 0.316 µM
[33] = second compound 10 µM, first compound 1 µM
[34] = second compound 10 µM, first compound 3.16 µM
[35] = second compound 10 µM, first compound 10 µM
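Throughout, for viability, T/C: spheroids mix tumor cells with HUVEC endothelium and human MSC stroma; luminescence taken as viability surrogate after a week of drug exposure.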

Q: With `CC1COCCN1c1cc(C2(S(C)(=N)=O)CC2)nc(-c2ccnc3[nH]ccc23)n1` (configuration not stated) + CC(CO)NC(=O)c1cc(-c2ccc(Cl)cc2)nn(-c2cnn(C)c2)c1=O as the compound, how does the IC50 [1] read?
A: The IC50 was 2.44 µM.

Q: What about the IC50 [2] of the same compound?
A: Its IC50 is 2.22 µM.

Q: What about the IC50 [3] of the same compound?
A: Its IC50 is 2.27 µM.

Q: And the IC50 [4]?
A: Its IC50 is 2.25 µM.

Q: What about the IC50 [5] of the same compound?
A: The IC50 was 1.81 µM.

Q: And the viability, T/C [6]?
A: Its viability, T/C is 114%.

Q: And the viability, T/C [7]?
A: The viability, T/C was 147%.

Q: And the viability, T/C [8]?
A: Its viability, T/C is 125%.

Q: And the viability, T/C [9]?
A: Its viability, T/C is 111%.

Q: What about the viability, T/C [10] of the same compound?
A: Its viability, T/C is 32.3%.

Q: And the viability, T/C [11]?
A: Its viability, T/C is 17.2%.

Q: And the viability, T/C [12]?
A: The viability, T/C was 110%.

Q: And the viability, T/C [13]?
A: The viability, T/C was 106%.

Q: And the viability, T/C [14]?
A: Its viability, T/C is 130%.

Q: And the viability, T/C [15]?
A: Its viability, T/C is 113%.

Q: What about the viability, T/C [16] of the same compound?
A: The viability, T/C was 21.8%.

Q: What about the viability, T/C [17] of the same compound?
A: Its viability, T/C is 14.1%.

Q: And the viability, T/C [18]?
A: Its viability, T/C is 113%.

Q: And the viability, T/C [19]?
A: Its viability, T/C is 108%.

Q: And the viability, T/C [20]?
A: Its viability, T/C is 103%.

Q: What about the viability, T/C [21] of the same compound?
A: Its viability, T/C is 125%.

Q: And the viability, T/C [22]?
A: Its viability, T/C is 24.8%.

Q: And the viability, T/C [23]?
A: Its viability, T/C is 12.7%.

Q: What about the viability, T/C [24] of the same compound?
A: Its viability, T/C is 114%.

Q: And the viability, T/C [25]?
A: Its viability, T/C is 117%.

Q: And the viability, T/C [26]?
A: Its viability, T/C is 146%.

Q: And the viability, T/C [27]?
A: Its viability, T/C is 105%.

Q: And the viability, T/C [28]?
A: The viability, T/C was 20.6%.

Q: And the viability, T/C [29]?
A: Its viability, T/C is 12.3%.

Q: What about the viability, T/C [30] of the same compound?
A: Its viability, T/C is 89.2%.

Q: And the viability, T/C [31]?
A: Its viability, T/C is 123%.

Q: What about the viability, T/C [32] of the same compound?
A: Its viability, T/C is 110%.

Q: What about the viability, T/C [33] of the same compound?
A: The viability, T/C was 85%.

Q: What about the viability, T/C [34] of the same compound?
A: Its viability, T/C is 17.3%.

Q: What about the viability, T/C [35] of the same compound?
A: Its viability, T/C is 11.8%.

Q: `COc1ccc([C@@H](O)c2cc(-c3ncnc4cc(N5CCOCC5)ccc34)c(F)cc2Cl)nn1` + CC(CO)NC(=O)c1cc(-c2ccc(Cl)cc2)nn(-c2cnn(C)c2)c1=O was tested. Which IC50 [1] did it give?
A: Its IC50 is greater than 10 µM.

Q: And the IC50 [2]?
A: The IC50 was 3.86 µM.

Q: And the IC50 [3]?
A: Its IC50 is 5.97 µM.

Q: And the IC50 [4]?
A: Its IC50 is 2.97 µM.

Q: What about the IC50 [5] of the same compound?
A: Its IC50 is 1.9 µM.

Q: And the viability, T/C [6]?
A: The viability, T/C was 94.8%.

Q: What about the viability, T/C [7] of the same compound?
A: Its viability, T/C is 90.2%.

Q: What about the viability, T/C [8] of the same compound?
A: The viability, T/C was 95.7%.

Q: What about the viability, T/C [9] of the same compound?
A: The viability, T/C was 89.7%.

Q: And the viability, T/C [10]?
A: Its viability, T/C is 61.2%.

Q: What about the viability, T/C [11] of the same compound?
A: Its viability, T/C is 50.9%.

Q: What about the viability, T/C [12] of the same compound?
A: The viability, T/C was 82.4%.

Q: And the viability, T/C [13]?
A: The viability, T/C was 98.9%.

Q: What about the viability, T/C [14] of the same compound?
A: The viability, T/C was 99.9%.

Q: And the viability, T/C [15]?
A: Its viability, T/C is 83%.

Q: What about the viability, T/C [16] of the same compound?
A: Its viability, T/C is 52.3%.

Q: And the viability, T/C [17]?
A: Its viability, T/C is 41.5%.

Q: What about the viability, T/C [18] of the same compound?
A: Its viability, T/C is 114%.

Q: And the viability, T/C [19]?
A: The viability, T/C was 101%.

Q: And the viability, T/C [20]?
A: The viability, T/C was 96.7%.

Q: What about the viability, T/C [21] of the same compound?
A: The viability, T/C was 79.3%.

Q: And the viability, T/C [22]?
A: The viability, T/C was 61.7%.

Q: What about the viability, T/C [23] of the same compound?
A: The viability, T/C was 40.3%.

Q: What about the viability, T/C [24] of the same compound?
A: The viability, T/C was 104%.

Q: What about the viability, T/C [25] of the same compound?
A: Its viability, T/C is 86.2%.

Q: And the viability, T/C [26]?
A: The viability, T/C was 116%.

Q: What about the viability, T/C [27] of the same compound?
A: Its viability, T/C is 73%.

Q: What about the viability, T/C [28] of the same compound?
A: Its viability, T/C is 54.6%.

Q: And the viability, T/C [29]?
A: Its viability, T/C is 42.7%.

Q: What about the viability, T/C [30] of the same compound?
A: The viability, T/C was 87.7%.

Q: And the viability, T/C [31]?
A: Its viability, T/C is 88.9%.

Q: What about the viability, T/C [32] of the same compound?
A: The viability, T/C was 79.3%.

Q: What about the viability, T/C [33] of the same compound?
A: The viability, T/C was 57.9%.

Q: And the viability, T/C [34]?
A: Its viability, T/C is 44.8%.

Q: What about the viability, T/C [35] of the same compound?
A: Its viability, T/C is 35.5%.

Q: Which viability, T/C (compound 0.0316 µM) does the source give for `COc1cccc2c1C(=O)c1c(O)c3c(c(O)c1C2=O)CC(O)(C(=O)CO)CC3OC1CC(N)C(O)C(C)O1` (configuration not stated) here?
A: The viability, T/C was 60.2% and 42.4% and 46.4%.

Q: What about the viability, T/C (compound 0.1 µM) of the same compound?
A: The viability, T/C was 51.7% and 29.8% and 35.3%.

Q: And the viability, T/C (compound 0.316 µM)?
A: Its viability, T/C is 40.5% and 30.9% and 23.8%.

Q: What about the viability, T/C (compound 1 µM) of the same compound?
A: Its viability, T/C is 2.19% and 6.39% and 4.25%.

Q: And the viability, T/C (compound 3.16 µM)?
A: The viability, T/C was 3.29% and 2.59% and 2.1%.

Q: And the viability, T/C (compound 10 µM)?
A: Its viability, T/C is 12.3% and 10.8% and 14%.

Q: And the IC50 (curve of compound)?
A: Its IC50 is 0.155 µM and < 0.0316 µM.

Q: What does the source list for `Nc1ncn(C2CC(O)C(CO)S2)c(=O)n1` (configuration not stated) + Cc1cncc(-c2nc(NCCc3c[nH]c4ccccc34)c3ncn(C(C)C)c3n2)c1?
A: IC50 [1]: > 0.3 µM; IC50 [2]: > 0.3 µM; IC50 [3]: > 0.3 µM; IC50 [4]: > 0.3 µM; IC50 [5]: > 0.3 µM; viability, T/C (second compound 0.1 µM, first compound 0.000949 µM): 115%; viability, T/C (second compound 0.1 µM, first compound 0.003 µM): 113%; viability, T/C (second compound 0.1 µM, first compound 0.00949 µM): 123%; viability, T/C (second compound 0.1 µM, first compound 0.03 µM): 105%; viability, T/C (second compound 0.1 µM, first compound 0.0949 µM): 93.3%; viability, T/C (second compound 0.1 µM, first compound 0.3 µM): 97.8%; viability, T/C (second compound 0.316 µM, first compound 0.000949 µM): 112%; viability, T/C (second compound 0.316 µM, first compound 0.003 µM): 112%; viability, T/C (second compound 0.316 µM, first compound 0.00949 µM): 117%; viability, T/C (second compound 0.316 µM, first compound 0.03 µM): 115%; viability, T/C (second compound 0.316 µM, first compound 0.0949 µM): 99.5%; viability, T/C (second compound 0.316 µM, first compound 0.3 µM): 93.7%; viability, T/C (second compound 1 µM, first compound 0.000949 µM): 126%; viability, T/C (second compound 1 µM, first compound 0.003 µM): 161%; viability, T/C (second compound 1 µM, first compound 0.00949 µM): 158%; viability, T/C (second compound 1 µM, first compound 0.03 µM): 125%; viability, T/C (second compound 1 µM, first compound 0.0949 µM): 125%; viability, T/C (second compound 1 µM, first compound 0.3 µM): 99%; viability, T/C (second compound 3.16 µM, first compound 0.000949 µM): 146%; viability, T/C (second compound 3.16 µM, first compound 0.003 µM): 129%; viability, T/C (second compound 3.16 µM, first compound 0.00949 µM): 122%; viability, T/C (second compound 3.16 µM, first compound 0.03 µM): 123%; viability, T/C (second compound 3.16 µM, first compound 0.0949 µM): 118%; viability, T/C (second compound 3.16 µM, first compound 0.3 µM): 128%; viability, T/C (second compound 10 µM, first compound 0.000949 µM): 145%; viability, T/C (second compound 10 µM, first compound 0.003 µM): 143%; viability, T/C (second compound 10 µM, first compound 0.00949 µM): 105%; viability, T/C (second compound 10 µM, first compound 0.03 µM): 142%; viability, T/C (second compound 10 µM, first compound 0.0949 µM): 114%; viability, T/C (second compound 10 µM, first compound 0.3 µM): 121%
